# ± gives the expanded uncertainty stated by the source.
# Test: mn = molality of the nth substance listed, in mol/kg
# Settings: 298.15 K, 101 kPa, Liquid, Rudolph densimeter
structure (smiles),measurement,setting,value
[Cl-].[Cl-].[Mg+2] [magnesium chloride] + CO,mass density,m1 = 0.0105,788.19 ± 0.19 kg/m3
same,mass density,m1 = 0.021,789.37 ± 0.19 kg/m3
same,mass density,m1 = 0.0316,790.72 ± 0.19 kg/m3
same,mass density,m1 = 0.0422,791.97 ± 0.19 kg/m3
same,mass density,m1 = 0.0528,793.43 ± 0.19 kg/m3
same,mass density,m1 = 0.0581,794.28 ± 0.2 kg/m3
same,mass density,m1 = 0.0634,795.32 ± 0.2 kg/m3
same,mass density,m1 = 0.0687,796.28 ± 0.19 kg/m3
same,mass density,m1 = 0.074,796.94 ± 0.19 kg/m3
same,mass density,m1 = 0.0794,797.82 ± 0.2 kg/m3
same,mass density,m1 = 0.0847,798.59 ± 0.2 kg/m3
same,mass density,m1 = 0.09,799.4 ± 0.2 kg/m3
same,mass density,m1 = 0.0954,800.16 ± 0.2 kg/m3
O=[N+]([O-])[O-].O=[N+]([O-])[O-].[Mg+2] [magnesium nitrate] + CO,mass density,m1 = 0.0067,787.75 ± 0.19 kg/m3
same,mass density,m1 = 0.0135,788.44 ± 0.19 kg/m3
same,mass density,m1 = 0.0203,789.09 ± 0.19 kg/m3
same,mass density,m1 = 0.0271,789.77 ± 0.19 kg/m3
same,mass density,m1 = 0.0339,790.43 ± 0.19 kg/m3
same,mass density,m1 = 0.0373,790.75 ± 0.19 kg/m3
same,mass density,m1 = 0.0407,791.07 ± 0.19 kg/m3
same,mass density,m1 = 0.0441,791.39 ± 0.19 kg/m3
same,mass density,m1 = 0.0475,791.72 ± 0.19 kg/m3
same,mass density,m1 = 0.051,792.03 ± 0.19 kg/m3
same,mass density,m1 = 0.0544,792.33 ± 0.19 kg/m3
same,mass density,m1 = 0.0578,792.66 ± 0.19 kg/m3
same,mass density,m1 = 0.0612,792.95 ± 0.19 kg/m3
same,mass density,m1 = 0.0647,793.26 ± 0.19 kg/m3
same,mass density,m1 = 0.0681,793.56 ± 0.19 kg/m3
"O=[N+]([O-])[O-].O=[N+]([O-])[O-].[Zn+2] [nitric acid, zinc salt] + CO",mass density,m1 = 0.0053,787.73 ± 0.19 kg/m3
same,mass density,m1 = 0.0106,788.43 ± 0.19 kg/m3
same,mass density,m1 = 0.0159,789.11 ± 0.19 kg/m3
same,mass density,m1 = 0.0212,789.81 ± 0.19 kg/m3
same,mass density,m1 = 0.0265,790.47 ± 0.19 kg/m3
same,mass density,m1 = 0.0292,790.79 ± 0.19 kg/m3
same,mass density,m1 = 0.0319,791.13 ± 0.19 kg/m3
same,mass density,m1 = 0.0346,791.46 ± 0.19 kg/m3
same,mass density,m1 = 0.0372,791.79 ± 0.19 kg/m3
same,mass density,m1 = 0.0399,792.11 ± 0.19 kg/m3
same,mass density,m1 = 0.0426,792.44 ± 0.19 kg/m3
same,mass density,m1 = 0.0453,792.76 ± 0.19 kg/m3
same,mass density,m1 = 0.048,793.07 ± 0.19 kg/m3
same,mass density,m1 = 0.0507,793.39 ± 0.19 kg/m3
same,mass density,m1 = 0.0533,793.72 ± 0.19 kg/m3
same,mass density,m1 = 0.0804,796.87 ± 0.19 kg/m3
